From ChEMBL document CHEMBL1201862, “PubChem BioAssay data set” (2004) come the findings set out here.

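Test compounds were applied to cells in 96-well plates for 48 hours at 5 doses. GI50: concentration for 50% inhibition of growth.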 Activity calls are given as the source filed them. Cut-off read from the data, not from the text of the source: active = GI50 up to about 1.1 µM and inactive = higher.

What all share (assay): inhibition of tumour cell growth, NCI panel, 48 h
For assay [1], the system named is BT-549.
Assay [2] deals with SW-620.
For assay [3], the system named is MCF7.
Assay [4] deals with K562.
For assay [5], the system named is RXF 393.
For assay [6], the system named is SF-268.
Assay [7] has as its system NCI-H226.
In assay [8] the test system is SK-MEL-5.
For assay [9], the system named is DU-145.
In assay [10] the test system is HOP-92.
Assay [11] relates to SN12C.
For assay [12], the system named is A498.
The test system of assay [13] is HCT-116.
The subject of assay [14] is MDA-MB-435.
For assay [15], the system named is SR.
In assay [16] the test system is MOLT-4.
The test system of assay [17] is HOP-62.
Assay [18] relates to SNB-75.
Assay [19] deals with MDA-N.

Turning to `O=C1CS/C(=N/N=C/c2cn(Cc3ccc(Cl)cc3Cl)c3ccccc23)N1`, the GI50 in assay [1] was > 100 µM (inactive); in assay [2], 27.5 µM (inactive); in assay [3] it was 18.5 µM (inactive); in [4], 38.8 µM (inactive); in assay [5] it was 24.9 µM (inactive); in [6] it was 30.8 µM (inactive). For the same compound, the GI50 in assay [7] is > 100 µM (inactive); in assay [8], 35.6 µM (inactive); in [9], 53.6 µM (inactive); in assay [10], 28.2 µM (inactive); in [11], 19.5 µM (inactive); in assay [12] it was 19.9 µM (inactive). Besides, the GI50 is 44.6 µM (inactive) in [13]; 25 µM (inactive) in [14]; 14.1 µM (inactive) in assay [15]; 38.2 µM (inactive) in assay [16]; 27.6 µM (inactive) in assay [17]; 19.1 µM (inactive) in [18].
Take `CC1=C2CC3=C(C)C(=O)O[C@H]3C[C@@H](C)[C@@H]2CC1` [AMERICANOLIDE D]: the GI50 in assay [1] is > 100 µM (inactive); in [2], > 100 µM (inactive); in [4], 37.8 µM (inactive); in assay [6] it was > 100 µM (inactive); in [7] it was > 100 µM (inactive); in assay [8] it was 91.8 µM (inactive). The GI50 is > 100 µM (inactive) in [10]; > 100 µM (inactive) in assay [12]; > 100 µM (inactive) in [13]; > 100 µM (inactive) in assay [14]; 62.1 µM (inactive) in [15]; 51.9 µM (inactive) in assay [16]. In assay [18], the GI50 was 97.5 µM (inactive).
On to `Cc1c(C)c2c(c(N)c1C#N)C(=O)N(O)C2=O`, for which the GI50 in [1], in assay [2], in assay [3], in [4], in assay [5] and in assay [6] was > 100 µM (inactive) throughout. Moreover, the GI50 in [7], in [8], in assay [9], in assay [10], in [11] and in [12] was > 100 µM (inactive) throughout. Moreover, the GI50 in [13] was > 100 µM (inactive); in assay [14] it was > 100 µM (inactive); in assay [15], > 100 µM (inactive); in [16], > 100 µM (inactive); in assay [18], 45.2 µM (inactive).
Turning to `COc1cc2c(c3c1c(=O)c1ccccc1n3C)C=C([N+](=O)[O-])C(C)(C)O2`, the GI50 in assay [3] was 0.358 µM (active); in [4], 0.441 µM (active); in [5] it was 0.132 µM (active); in [6], 0.608 µM (active); in [7] it was 0.546 µM (active); in assay [8] it was 0.0141 µM (active). Also, the GI50 was 0.114 µM (active) in [19]; < 0.0456 µM (active) in [9]; 0.431 µM (active) in assay [10]; 0.0253 µM (active) in [12]; 0.239 µM (active) in assay [13]; 0.0931 µM (active) in [14]. Moreover, the GI50 in assay [15] was 0.124 µM (active); in [16], 0.0861 µM (active); in [17], 30.9 µM (inactive); in assay [18], 13.2 µM (inactive).
For `CC1CN=C(N(Cc2ccccc2)C(=O)Nc2ccc(Cl)c(Cl)c2)S1` (stereo not drawn), the GI50 in assay [2] is 43.5 µM (inactive); in assay [3], 52.1 µM (inactive); in [4], 21.1 µM (inactive); in assay [6], 62.7 µM (inactive); in assay [8] it was 23.3 µM (inactive); in assay [19], 29.6 µM (inactive). The GI50 was 42.7 µM (inactive) in assay [9]; 21.6 µM (inactive) in assay [10]; 17.2 µM (inactive) in assay [11]; 35.7 µM (inactive) in [12]; 27.7 µM (inactive) in assay [13]; 29.1 µM (inactive) in assay [15]. Also, the results for the GI50 in assay [16], in assay [17] and in [18] were > 10 µM (inactive), 87.5 µM (inactive) and 35.6 µM (inactive), respectively.
`Cc1ccc(S(=O)(=O)C(C#N)c2nc3ccccc3nc2-n2cccn2)cc1` (stereo not drawn): the GI50 in [4], in [6], in [7], in [10], in [11] and in [13] was > 100 µM (inactive) in each case. Further, the GI50 in assay [16] and in [18] was > 100 µM (inactive) in each case.
Regarding `C[C@@H]1[C@H](C)N1CC(O)Cn1ccnc1[N+](=O)[O-]` (stereo partly drawn), the GI50 in [2], in assay [3], in [4], in [5], in assay [6] and in assay [7] was > 100 µM (inactive) in each case. Further, the GI50 in assay [8], in assay [19], in [9], in assay [11], in assay [12] and in assay [13] was > 100 µM (inactive) in each case. Moreover, the GI50 in assay [14], in [15], in [16], in [17] and in assay [18] was > 100 µM (inactive) each time.
`CO[C@]12C[C@H](CNC(=O)c3ccc[nH]3)O[C@H]1NC(=O)N2`: the GI50 in assay [1], in assay [2], in assay [3], in assay [4], in [6] and in assay [7] was > 100 µM (inactive) each time. Further, the GI50 in [8], in assay [9], in assay [10], in assay [11], in assay [12] and in [13] was > 100 µM (inactive) in each case. Moreover, the results for the GI50 in assay [14], in [15] and in assay [17] were > 100 µM (inactive), 9.31 µM (inactive) and > 100 µM (inactive), respectively.
As for `OC(C/C(=N\N1CCCCC1)c1cccs1)(C(F)(F)F)C(F)(F)F`, the GI50 in assay [2], in [3], in assay [4], in [5], in [6] and in [7] was > 10 µM (inactive) each time. Moreover, the GI50 in [8], in [19], in assay [9], in [10], in assay [11] and in assay [12] was > 10 µM (inactive) throughout. In addition, the GI50 in assay [13], in [14], in assay [15], in assay [16], in assay [17] and in assay [18] was > 10 µM (inactive) throughout.
For the compound `O=c1[nH]nc(-c2ccccc2)n1/N=C/c1c[nH]c2ccccc12`, the GI50 in assay [2] is > 100 µM (inactive); in assay [3], > 100 µM (inactive); in [4], > 100 µM (inactive); in [5], 98.4 µM (inactive); in assay [6] it was 74.6 µM (inactive); in [7] it was > 100 µM (inactive). Further, the GI50 in [8], in assay [19], in assay [9], in [10], in [11] and in assay [12] was > 100 µM (inactive) throughout. The GI50 was 42.9 µM (inactive) in assay [13], 77.1 µM (inactive) in assay [14], > 100 µM (inactive) in assay [16] and > 100 µM (inactive) in [17].
Turning to `CO[C@@](c1ccccc1)(c1nc(C#N)c(N)o1)C(F)(F)F`, the GI50 is 86.5 µM (inactive) in assay [2]; > 100 µM (inactive) in assay [3]; 33.7 µM (inactive) in assay [4]; > 100 µM (inactive) in assay [5]; > 100 µM (inactive) in assay [7]; > 100 µM (inactive) in assay [8]. The GI50 in assay [19] was > 100 µM (inactive); in [9] it was > 100 µM (inactive); in assay [10], 44.7 µM (inactive); in assay [11], > 100 µM (inactive); in [12] it was > 100 µM (inactive); in [13], 78.2 µM (inactive). The GI50 was > 100 µM (inactive) in [14], 82.2 µM (inactive) in assay [16], > 100 µM (inactive) in assay [17] and 20.5 µM (inactive) in assay [18].
`CC1C/C(=C\c2ccc(OC(=O)C(C)(C)C)cc2)C(=O)/C(=C/c2ccc(OC(=O)C(C)(C)C)cc2)C1` (stereo not drawn): the GI50 in [2] is > 100 µM (inactive); in [3], 45.5 µM (inactive); in assay [4] it was 84.7 µM (inactive); in [5], 19.8 µM (inactive); in [6] it was 87.7 µM (inactive); in assay [7] it was 22.2 µM (inactive). Also, the GI50 was 57.3 µM (inactive) in assay [8]; 30.5 µM (inactive) in assay [19]; > 100 µM (inactive) in assay [9]; > 100 µM (inactive) in [10]; 26.2 µM (inactive) in [11]; 33.6 µM (inactive) in assay [12]. The GI50 in [13] is 61.2 µM (inactive); in assay [14], 46.5 µM (inactive); in assay [15], 22.3 µM (inactive); in [16], 7.66 µM (inactive); in assay [17], 41.2 µM (inactive).
Regarding `COc1ccc(OC)c(/C=C/c2cnnc3ccccc23)c1`, the GI50 in assay [2] was 3.06 µM (inactive); in [3], 1.85 µM (inactive); in [4], 2.33 µM (inactive); in assay [5], 2.25 µM (inactive); in assay [6], 4.79 µM (inactive); in assay [7], 5.73 µM (inactive). In addition, the GI50 was 3.61 µM (inactive) in [8]; 0.741 µM (active) in [19]; > 10 µM (inactive) in assay [9]; 3.89 µM (inactive) in assay [10]; 4.17 µM (inactive) in assay [11]; 3.4 µM (inactive) in assay [13]. Also, the GI50 in [14] was 0.638 µM (active); in assay [15], 1.51 µM (inactive); in assay [16], 2.65 µM (inactive); in assay [17] it was 4.12 µM (inactive); in assay [18] it was 4.19 µM (inactive).
